ChEMBL document CHEMBL3885881, “DrugMatrix”

Species on record: Rattus norvegicus
Experiment: DrugMatrix - Regimen: Daily Repeat
Type: toxicity, organism-based, Sprague-Dawley
Set-up: regimen Daily Repeat, gender Male, age 6-8 weeks
Details: in vivo, iv, vehicle 100 % SALINE; for EOSINOPHIL / ERYTHROCYTE COUNT / HEMATOCRIT / HEMOGLOBIN / LEUKOCYTE COUNT / LYMPHOCYTE / MEAN CORPUSCULAR HEMOGLOBIN / MEAN CORPUSCULAR HEMOGLOBIN CONCENTRATION / MEAN CORPUSCULAR VOLUME / MONOCYTE / NEUTROPHIL / NUCLEATED RED BLOOD CELLS / PLATELET COUNT / ABSOLUTE BASOPHIL / ABSOLUTE EOSINOPHIL / ABSOLUTE LYMPHOCYTE / ABSOLUTE MONOCYTE / ABSOLUTE SEGMENTED NEUTROPHIL / BASOPHIL: tissue Blood; for ALANINE AMINOTRANSFERASE / ALBUMIN / ALKALINE PHOSPHATASE / ASPARTATE AMINOTRANSFERASE / BLOOD UREA NITROGEN / CARBON DIOXIDE / CHLORIDE / CHOLESTEROL / CREATINE PHOSPHOKINASE / CREATININE / GLUCOSE / LACTATE DEHYDROGENASE / LIPASE / PHOSPHORUS / POTASSIUM / SODIUM / TOTAL BILIRUBIN / TOTAL PROTEIN / URIC ACID: tissue Plasma
[1] = 0 mg/kg, 72 h, dose level Control, time 3 day
[2] = 0 mg/kg, 120 h, dose level Control, time 5 day
[3] = 20 mg/kg, 72 h, dose level Low, time 3 day
[4] = 20 mg/kg, 120 h, dose level Low, time 5 day

NCC[C@H](O)C(=O)N[C@@H]1C[C@H](N)[C@@H](O[C@H]2O[C@H](CN)[C@@H](O)[C@H](O)[C@H]2O)[C@H](O)[C@H]1O[C@H]1O[C@H](CO)[C@@H](O)[C@H](N)[C@H]1O [AMIKACIN]
EOSINOPHIL [1]: 0% | ERYTHROCYTE COUNT [1]: 5.38 x10E6/uL | HEMATOCRIT [1]: 33.67% | HEMOGLOBIN [1]: 12.88 G/DL | LEUKOCYTE COUNT [1]: 8.37 x10E3/uL | LYMPHOCYTE [1]: 91.17% | MEAN CORPUSCULAR HEMOGLOBIN [1]: 23.95 pg | MEAN CORPUSCULAR HEMOGLOBIN CONCENTRATION [1]: 38.23 G/DL | MEAN CORPUSCULAR VOLUME [1]: 62.6 fL | MONOCYTE [1]: 0.83% | NEUTROPHIL [1]: 8% | NUCLEATED RED BLOOD CELLS [1]: 0.17 /100WBC | PLATELET COUNT [1]: 865 x10E3/uL | ALANINE AMINOTRANSFERASE [1]: 51.67 u/L | ALBUMIN [1]: 3.97 G/DL | ALKALINE PHOSPHATASE [1]: 351.17 u/L | ASPARTATE AMINOTRANSFERASE [1]: 82.33 u/L | BLOOD UREA NITROGEN [1]: 15.17 mg/dL | CARBON DIOXIDE [1]: 34.5 mmol/L | CHLORIDE [1]: 100 MEQ/L | CHOLESTEROL [1]: 80.33 mg/dL | CREATINE PHOSPHOKINASE [1]: 316.5 u/L | CREATININE [1]: 0.17 mg/dL | GLUCOSE [1]: 149.17 mg/dL | LACTATE DEHYDROGENASE [1]: 105.67 u/L | LIPASE [1]: 9.5 u/L | PHOSPHORUS [1]: 10.87 mg/dL | POTASSIUM [1]: 5.47 MEQ/L | SODIUM [1]: 144.2 MEQ/L | TOTAL BILIRUBIN [1]: 0.2 mg/dL | TOTAL PROTEIN [1]: 5.83 G/DL | URIC ACID [1]: 0.83 mg/dL | ABSOLUTE BASOPHIL [2]: 0 CELLS/uL | ABSOLUTE EOSINOPHIL [2]: 0 CELLS/uL | ABSOLUTE LYMPHOCYTE [2]: 6333.5 CELLS/uL | ABSOLUTE MONOCYTE [2]: 38.83 CELLS/uL | ABSOLUTE SEGMENTED NEUTROPHIL [2]: 661 CELLS/uL | BASOPHIL [2]: 0% | EOSINOPHIL [2]: 0% | ERYTHROCYTE COUNT [2]: 5.44 x10E6/uL | HEMATOCRIT [2]: 34.17% | HEMOGLOBIN [2]: 13.22 G/DL | LEUKOCYTE COUNT [2]: 7.03 x10E3/uL | LYMPHOCYTE [2]: 90.17% | MEAN CORPUSCULAR HEMOGLOBIN [2]: 24.38 pg | MEAN CORPUSCULAR HEMOGLOBIN CONCENTRATION [2]: 38.7 G/DL | MEAN CORPUSCULAR VOLUME [2]: 62.95 fL | MONOCYTE [2]: 0.5% | NEUTROPHIL [2]: 9.33% | NUCLEATED RED BLOOD CELLS [2]: 0 /100WBC | PLATELET COUNT [2]: 924.33 x10E3/uL | ALANINE AMINOTRANSFERASE [2]: 52.5 u/L | ALBUMIN [2]: 3.97 G/DL | ALKALINE PHOSPHATASE [2]: 364.83 u/L | ASPARTATE AMINOTRANSFERASE [2]: 82.5 u/L | BLOOD UREA NITROGEN [2]: 17 mg/dL | CARBON DIOXIDE [2]: 32.33 mmol/L | CHLORIDE [2]: 99.6 MEQ/L | CHOLESTEROL [2]: 75.83 mg/dL | CREATINE PHOSPHOKINASE [2]: 419 u/L | CREATININE [2]: 0.21 mg/dL | GLUCOSE [2]: 155 mg/dL | LACTATE DEHYDROGENASE [2]: 111.5 u/L | LIPASE [2]: 11.33 u/L | PHOSPHORUS [2]: 10.32 mg/dL | POTASSIUM [2]: 5.37 MEQ/L | SODIUM [2]: 144.64 MEQ/L | TOTAL BILIRUBIN [2]: 0.18 mg/dL | TOTAL PROTEIN [2]: 5.98 G/DL | URIC ACID [2]: 0.62 mg/dL | ABSOLUTE BASOPHIL [3]: 0 CELLS/uL | ABSOLUTE EOSINOPHIL [3]: 0 CELLS/uL | ABSOLUTE LYMPHOCYTE [3]: 8480.67 CELLS/uL | ABSOLUTE MONOCYTE [3]: 225.67 CELLS/uL | ABSOLUTE SEGMENTED NEUTROPHIL [3]: 993.67 CELLS/uL | BASOPHIL [3]: 0% | EOSINOPHIL [3]: 0% | ERYTHROCYTE COUNT [3]: 5.64 x10E6/uL | HEMATOCRIT [3]: 34.43% | HEMOGLOBIN [3]: 13 G/DL | LEUKOCYTE COUNT [3]: 9.7 x10E3/uL | LYMPHOCYTE [3]: 88% | MEAN CORPUSCULAR HEMOGLOBIN [3]: 23.03 pg | MEAN CORPUSCULAR HEMOGLOBIN CONCENTRATION [3]: 37.77 G/DL | MEAN CORPUSCULAR VOLUME [3]: 61 fL | MONOCYTE [3]: 2.33% | NEUTROPHIL [3]: 9.67% | NUCLEATED RED BLOOD CELLS [3]: 0.33 /100WBC | PLATELET COUNT [3]: 903.33 x10E3/uL | ALANINE AMINOTRANSFERASE [3]: 53.67 u/L | ALBUMIN [3]: 4.13 G/DL | ALKALINE PHOSPHATASE [3]: 308.67 u/L | ASPARTATE AMINOTRANSFERASE [3]: 82.33 u/L | BLOOD UREA NITROGEN [3]: 14 mg/dL | CARBON DIOXIDE [3]: 35.67 mmol/L | CHLORIDE [3]: 99 MEQ/L | CHOLESTEROL [3]: 77.33 mg/dL | CREATINE PHOSPHOKINASE [3]: 320 u/L | CREATININE [3]: 0.17 mg/dL | GLUCOSE [3]: 145.67 mg/dL | LACTATE DEHYDROGENASE [3]: 98 u/L | LIPASE [3]: 9.33 u/L | PHOSPHORUS [3]: 11.1 mg/dL | POTASSIUM [3]: 6.07 MEQ/L | SODIUM [3]: 144.47 MEQ/L | TOTAL BILIRUBIN [3]: 0.2 mg/dL | TOTAL PROTEIN [3]: 6.03 G/DL | URIC ACID [3]: 0.9 mg/dL | ABSOLUTE BASOPHIL [4]: 0 CELLS/uL | ABSOLUTE EOSINOPHIL [4]: 0 CELLS/uL | ABSOLUTE LYMPHOCYTE [4]: 3175.67 CELLS/uL
